Reference: US20260184748A1, “COMPOSITIONS COMPRISING OCTADECANEUROPEPTIDES (ODN) AND SYNTHETIC DERIVATIVES THEREOF AND METHODS OF USE FOR MODULATION OF FOOD INTAKE, OBESITY, BODY WEIGHT, NAUSEA, AND EMESIS” (The Trustees of the University of Pennsylvania, priority 2022, published 2026)
Where “and” joins values, the source holds several entries; their conditions need not be identical. Identical values can stand only once. Like-named read-outs stand apart in the source and are kept apart here. Where a SMILES comes first, the peptide text is derived from it. Where no end group is shown, it is not given here.

Columns and labels:
PTGIR = PTGIR (Homo sapiens, UniProt P43119); experiment: Arrestin agonist mode; assay type: cell-based; details: read-out: RC50 (the source's name)
GPCR panel = experiment: gpcrMAX agonist mode (beta-arrestin recruitment), GPCR Biosensor Assays; assay type: cell-based; design: Max Response: unit not given here
P2RY12 = P2RY12 (Homo sapiens, UniProt Q9H244); experiment: Arrestin agonist mode; assay type: cell-based; details: read-out: RC50 (the source's name)
GPR109B = GPR109B (Homo sapiens, UniProt P49019); experiment: Arrestin agonist mode; assay type: cell-based; details: read-out: RC50 (the source's name)
OXER1 = OXER1 (Homo sapiens, UniProt Q8TDS5); experiment: Arrestin agonist mode; assay type: cell-based; details: read-out: RC50 (the source's name)
[1] = rat, in vivo
TBXA2R = TBXA2R (Homo sapiens, UniProt P21731); experiment: Arrestin agonist mode; assay type: cell-based; details: read-out: RC50 (the source's name)
KISS1R = KISS1R (Homo sapiens, UniProt Q969F8); experiment: Arrestin agonist mode; assay type: cell-based; details: read-out: RC50 (the source's name)
[2] = rat, in vivo, ip
MLNR = MLNR (Homo sapiens, UniProt O43193); experiment: Arrestin agonist mode; assay type: cell-based; details: read-out: RC50 (the source's name)
GPR119 = GPR119 (Homo sapiens, UniProt Q8TDV5); experiment: Arrestin agonist mode; assay type: cell-based; details: read-out: RC50 (the source's name)
PTAFR = PTAFR (Homo sapiens, UniProt P25105); experiment: Arrestin agonist mode; assay type: cell-based; details: read-out: RC50 (the source's name)
P2RY6 = P2RY6 (Homo sapiens, UniProt Q15077); experiment: Arrestin agonist mode; assay type: cell-based; details: read-out: RC50 (the source's name)
P2RY2 = P2RY2 (Homo sapiens, UniProt P41231); experiment: Arrestin agonist mode; assay type: cell-based; details: read-out: RC50 (the source's name)
P2RY4 = P2RY4 (Homo sapiens, UniProt P51582); experiment: Arrestin agonist mode; assay type: cell-based; details: read-out: RC50 (the source's name)
[3] = Kaolin intake (pica) in rats; assay type: in vivo, rat
[4] = shrews; for emetic episodes: intraperitoneal
NPSR1B = NPSR1B (Homo sapiens, UniProt Q6W5P4); experiment: Arrestin agonist mode; assay type: cell-based; details: read-out: RC50 (the source's name)
DBI protein expression = experiment: Hindbrain DBI immunohistochemistry and quantification; assay type: in vivo, rat; details: 4th ventricle Ex-4 0.3 μg/2 μL in 24 h fasted HFD-maintained rats
Description: Rats maintained on chow or HFD were either ad libitum fed or fasted for 24 h. […] Rats were deeply anesthetized with KAX and transcardially perfused with 0.1 M phosphate-buffered saline (PBS; pH 7.4) followed by 4% paraformaldehyde in 0.1 M PBS on ice. Brains were removed from the crania and post-fixed in 4% paraformaldehyde for 24 h, then stored in 20% sucrose in 0.1 M PBS at 4° C. until sunk. Coronal dorsal vagal complex (DVC) sections (30 μm) were sliced and collected directly onto slides (12-550-15; Superfrost Plus, Fisher Scientific) using a cryostat and stored at −80° C. until the start of immunohistochemistry (IHC). Briefly, tissue was washed with 0.1 M PBS 3 times for 8 minutes and then incubated in blocking solution [5% normal donkey serum (Jackson Immunoresearch) in PBST; PBS with 0.3% triton X] followed by overnight incubation in rabbit anti-DBI primary antibody (1:500; ab231910, Abcam) and chicken anti-vimentin primary antibody (1:2000; ab24525, Abcam) at 4° C. […] Slides were visualized using fluorescence microscopy (BZ-X810, Keyence). Images analysis to quantify the fluorescent intensity of DBI protein staining in the nucleus solitary tractus (NTS) and area postrema (AP) as well as the % colocalization of DBI and vimentin staining in the AP, subpostrema, and 4th ventricle boarder was done using the HALO@FISH-IF and Area Quantification FL modules.

[5] = 24 h body weight change in rats; assay type: in vivo, rat; details: 4th ventricle injection

Sequence of MLNR (O43193 whole entry): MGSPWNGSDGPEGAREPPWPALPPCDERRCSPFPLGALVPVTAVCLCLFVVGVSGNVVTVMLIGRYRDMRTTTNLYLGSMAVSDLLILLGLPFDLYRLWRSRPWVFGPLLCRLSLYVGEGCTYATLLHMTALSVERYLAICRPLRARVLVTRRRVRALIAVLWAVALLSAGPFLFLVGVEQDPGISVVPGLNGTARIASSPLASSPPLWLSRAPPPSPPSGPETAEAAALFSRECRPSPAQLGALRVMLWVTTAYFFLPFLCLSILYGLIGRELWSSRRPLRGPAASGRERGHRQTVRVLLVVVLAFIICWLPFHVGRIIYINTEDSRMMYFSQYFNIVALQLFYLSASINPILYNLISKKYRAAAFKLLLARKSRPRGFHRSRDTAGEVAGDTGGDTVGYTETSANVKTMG
Sequence of GPR119 (Q8TDV5 whole entry): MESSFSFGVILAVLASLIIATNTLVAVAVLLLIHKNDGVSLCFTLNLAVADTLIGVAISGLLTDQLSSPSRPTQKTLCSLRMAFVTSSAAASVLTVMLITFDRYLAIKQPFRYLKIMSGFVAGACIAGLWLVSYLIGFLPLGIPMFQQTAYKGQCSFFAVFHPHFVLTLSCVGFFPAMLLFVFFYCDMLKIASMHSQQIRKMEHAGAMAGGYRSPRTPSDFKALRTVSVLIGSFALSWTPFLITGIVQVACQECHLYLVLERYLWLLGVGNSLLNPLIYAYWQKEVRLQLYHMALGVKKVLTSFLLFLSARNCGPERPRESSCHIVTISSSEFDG
Sequence of P2RY12 (Q9H244 whole entry, one chain of several): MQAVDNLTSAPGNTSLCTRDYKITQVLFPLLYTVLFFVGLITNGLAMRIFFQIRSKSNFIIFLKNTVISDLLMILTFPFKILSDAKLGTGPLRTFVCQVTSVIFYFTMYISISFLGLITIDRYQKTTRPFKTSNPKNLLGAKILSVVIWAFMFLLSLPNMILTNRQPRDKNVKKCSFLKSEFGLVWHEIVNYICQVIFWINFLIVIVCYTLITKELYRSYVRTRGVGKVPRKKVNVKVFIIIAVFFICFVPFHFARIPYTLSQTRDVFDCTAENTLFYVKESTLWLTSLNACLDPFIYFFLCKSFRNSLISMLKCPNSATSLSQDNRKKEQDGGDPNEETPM
Sequence of PTGIR (P43119 whole entry): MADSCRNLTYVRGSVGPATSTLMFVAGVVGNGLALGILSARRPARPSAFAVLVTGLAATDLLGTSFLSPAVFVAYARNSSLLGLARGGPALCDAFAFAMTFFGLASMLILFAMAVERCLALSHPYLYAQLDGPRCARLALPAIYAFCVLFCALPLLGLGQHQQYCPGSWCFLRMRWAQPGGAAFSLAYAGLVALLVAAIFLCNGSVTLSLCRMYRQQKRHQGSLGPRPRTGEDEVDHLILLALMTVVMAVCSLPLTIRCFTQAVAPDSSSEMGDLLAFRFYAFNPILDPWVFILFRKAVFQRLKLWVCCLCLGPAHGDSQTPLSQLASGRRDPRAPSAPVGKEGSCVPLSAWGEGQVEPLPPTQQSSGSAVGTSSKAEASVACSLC
Sequence of P2RY6 (Q15077 whole entry): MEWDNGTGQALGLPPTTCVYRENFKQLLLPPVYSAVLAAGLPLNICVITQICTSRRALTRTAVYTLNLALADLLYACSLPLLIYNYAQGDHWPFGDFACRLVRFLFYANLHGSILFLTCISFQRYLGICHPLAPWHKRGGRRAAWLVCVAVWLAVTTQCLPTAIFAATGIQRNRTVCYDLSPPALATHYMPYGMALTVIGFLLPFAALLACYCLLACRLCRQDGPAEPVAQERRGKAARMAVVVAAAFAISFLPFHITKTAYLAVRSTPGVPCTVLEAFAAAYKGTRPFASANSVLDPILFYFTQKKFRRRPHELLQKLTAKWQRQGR
Sequence of OXER1 (Q8TDS5 whole entry): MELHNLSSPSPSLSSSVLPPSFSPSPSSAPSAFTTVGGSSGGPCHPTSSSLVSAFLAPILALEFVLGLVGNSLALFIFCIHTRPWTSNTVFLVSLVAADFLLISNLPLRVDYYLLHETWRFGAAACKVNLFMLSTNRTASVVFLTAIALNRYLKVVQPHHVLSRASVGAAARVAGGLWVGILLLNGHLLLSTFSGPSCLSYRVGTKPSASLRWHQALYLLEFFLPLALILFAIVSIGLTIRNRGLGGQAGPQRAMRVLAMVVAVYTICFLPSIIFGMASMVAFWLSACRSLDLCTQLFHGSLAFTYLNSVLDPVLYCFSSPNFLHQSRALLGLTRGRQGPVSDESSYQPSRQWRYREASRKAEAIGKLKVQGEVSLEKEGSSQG
Sequence of GPR109B (P49019 whole entry): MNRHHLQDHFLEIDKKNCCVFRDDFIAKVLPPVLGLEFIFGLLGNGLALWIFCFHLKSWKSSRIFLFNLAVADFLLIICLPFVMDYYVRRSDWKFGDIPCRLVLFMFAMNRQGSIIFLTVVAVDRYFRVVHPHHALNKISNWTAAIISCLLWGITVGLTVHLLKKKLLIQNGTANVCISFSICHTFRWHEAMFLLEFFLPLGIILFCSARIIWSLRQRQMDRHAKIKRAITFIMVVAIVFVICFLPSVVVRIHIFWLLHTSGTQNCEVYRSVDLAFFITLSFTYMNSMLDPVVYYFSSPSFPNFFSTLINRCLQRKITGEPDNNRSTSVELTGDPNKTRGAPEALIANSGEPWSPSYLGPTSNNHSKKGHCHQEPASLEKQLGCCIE
Sequence of TBXA2R (P21731 whole entry): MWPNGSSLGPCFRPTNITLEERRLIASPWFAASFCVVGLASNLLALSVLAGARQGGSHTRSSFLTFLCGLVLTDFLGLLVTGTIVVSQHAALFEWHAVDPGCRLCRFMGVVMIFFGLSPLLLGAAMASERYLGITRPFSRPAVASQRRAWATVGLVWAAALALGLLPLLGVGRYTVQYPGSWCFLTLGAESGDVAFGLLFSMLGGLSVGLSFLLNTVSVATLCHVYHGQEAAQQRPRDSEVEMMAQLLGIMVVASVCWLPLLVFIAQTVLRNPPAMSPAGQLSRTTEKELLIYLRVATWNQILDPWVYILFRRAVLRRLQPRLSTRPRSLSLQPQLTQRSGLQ
Sequence of P2RY2 (P41231 whole entry): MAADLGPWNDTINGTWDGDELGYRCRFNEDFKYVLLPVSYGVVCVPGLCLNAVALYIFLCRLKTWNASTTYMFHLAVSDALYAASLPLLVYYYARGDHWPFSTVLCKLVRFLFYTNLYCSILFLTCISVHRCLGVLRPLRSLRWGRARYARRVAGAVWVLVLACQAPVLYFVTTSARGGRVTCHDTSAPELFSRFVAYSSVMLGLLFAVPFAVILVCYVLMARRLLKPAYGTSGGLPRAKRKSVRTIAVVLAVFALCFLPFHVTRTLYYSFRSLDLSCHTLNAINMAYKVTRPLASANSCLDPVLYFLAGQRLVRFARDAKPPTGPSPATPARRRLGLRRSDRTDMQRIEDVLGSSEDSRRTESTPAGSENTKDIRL
Sequence of NPSR1B (Q6W5P4 1-377 isoform Q6W5P4-4): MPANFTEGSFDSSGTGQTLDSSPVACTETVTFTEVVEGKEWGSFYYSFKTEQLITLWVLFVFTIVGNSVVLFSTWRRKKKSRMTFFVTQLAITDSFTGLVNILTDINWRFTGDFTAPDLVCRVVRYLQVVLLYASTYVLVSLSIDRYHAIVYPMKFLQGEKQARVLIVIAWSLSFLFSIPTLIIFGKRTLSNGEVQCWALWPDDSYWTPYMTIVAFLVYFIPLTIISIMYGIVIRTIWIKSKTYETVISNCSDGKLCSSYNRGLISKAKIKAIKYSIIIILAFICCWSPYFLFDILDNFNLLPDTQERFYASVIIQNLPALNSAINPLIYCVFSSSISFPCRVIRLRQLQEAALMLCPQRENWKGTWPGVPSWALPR
Sequence of PTAFR (P25105 whole entry): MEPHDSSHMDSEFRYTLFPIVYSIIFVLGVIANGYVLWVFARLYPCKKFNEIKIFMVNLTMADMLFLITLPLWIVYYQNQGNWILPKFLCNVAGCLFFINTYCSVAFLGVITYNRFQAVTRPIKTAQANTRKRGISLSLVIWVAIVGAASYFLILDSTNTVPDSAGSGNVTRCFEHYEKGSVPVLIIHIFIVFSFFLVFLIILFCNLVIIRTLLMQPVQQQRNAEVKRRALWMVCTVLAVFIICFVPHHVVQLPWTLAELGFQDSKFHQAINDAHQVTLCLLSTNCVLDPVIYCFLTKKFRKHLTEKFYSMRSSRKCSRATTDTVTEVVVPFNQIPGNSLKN
Sequence of P2RY4 (P51582 whole entry): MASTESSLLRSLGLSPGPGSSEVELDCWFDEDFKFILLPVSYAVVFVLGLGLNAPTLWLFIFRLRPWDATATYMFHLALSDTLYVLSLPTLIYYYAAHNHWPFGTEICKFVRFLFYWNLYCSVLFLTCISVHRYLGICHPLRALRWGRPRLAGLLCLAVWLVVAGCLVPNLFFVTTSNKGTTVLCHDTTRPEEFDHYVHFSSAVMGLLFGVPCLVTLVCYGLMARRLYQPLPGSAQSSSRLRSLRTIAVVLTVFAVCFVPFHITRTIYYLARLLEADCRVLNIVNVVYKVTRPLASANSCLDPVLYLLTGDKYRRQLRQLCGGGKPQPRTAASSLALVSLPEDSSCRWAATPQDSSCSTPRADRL
Sequence of KISS1R (Q969F8 whole entry): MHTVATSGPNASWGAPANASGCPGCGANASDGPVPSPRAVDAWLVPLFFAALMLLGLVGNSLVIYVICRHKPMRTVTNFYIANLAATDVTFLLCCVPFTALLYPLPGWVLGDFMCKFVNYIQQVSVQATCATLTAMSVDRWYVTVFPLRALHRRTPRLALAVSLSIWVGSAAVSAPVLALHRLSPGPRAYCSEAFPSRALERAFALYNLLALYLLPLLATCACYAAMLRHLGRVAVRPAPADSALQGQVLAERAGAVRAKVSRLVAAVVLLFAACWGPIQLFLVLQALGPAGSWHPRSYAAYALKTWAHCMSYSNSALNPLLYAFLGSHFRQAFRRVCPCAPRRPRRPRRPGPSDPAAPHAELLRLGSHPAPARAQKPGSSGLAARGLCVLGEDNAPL

Molecule: CC#CCC(C)[C@H](O)/C=C/[C@@H]1[C@H]2c3cccc(CCCC(=O)O)c3O[C@H]2C[C@H]1O (mixture of isomers) [Beraprost]
- EC50 (PTGIR): 219 nM

Molecule: COc1ccc2[nH]c(I)c(CCNC(C)=O)c2c1 [2-Iodomelatonin]
- EC80 (GPCR panel): 2.77 nM
- Max Response (GPCR panel): 102.67

Molecule: CSc1nc(N)c2ncn([C@@H]3O[C@H](COP(=O)(O)OP(=O)(O)O)[C@@H](O)[C@H]3O)c2n1 [2-methylthio-ADP]
- EC50 (P2RY12): 2.72 nM

Molecule: CCCCCC(O)CC(=O)O (stereo not drawn) [3-Hydroxyoctanoic Acid]
- EC50 (GPR109B): 373000 nM

Molecule: CCCCC/C=C\C/C=C\C/C=C\C=C\C(=O)CCCC(=O)O [5-OxoETE]
- EC50 (OXER1): 1140 nM

Molecule: CC(C)C[C@H](NC(=O)CNC(=O)[C@@H]1CCCN1C(=O)[C@@H](N)CCCNC(=N)N)C(=O)N[C@H](CC(C)C)C(=O)N[C@@H](CC(=O)O)C(=O)N[C@@H](CC(C)C)C(=O)N[C@@H](CCCCN)C(N)=O [AntOP, Arg-Pro-Gly-Leu-(D-Leu)-Asp-Leu-Lys] (HELM PEPTIDE1{R.P.G.L.[dL].D.L.K.[am]}$$$$V2.0)
- effect of pretreatment on Ex-4-induced kaolin intake [1]: did not significantly elevate kaolin intake relative to controls

Molecule: CCCCCCC(C)(C)c1ccc([C@@H]2C[C@H](O)CC[C@H]2CCCO)c(O)c1 [CP55940]
- Max Response (GPCR panel): 104.27 and 99.599

Molecule: CC(C)C[C@H](NC(=O)[C@H](CCCCN)NC(=O)CNC(=O)[C@H](CC(C)C)NC(=O)[C@@H](NC(=O)[C@@H]1CSSC[C@H](N)C(=O)N[C@@H](CO)C(=O)N[C@@H](CC(N)=O)C(=O)N[C@@H](CC(C)C)C(=O)N[C@@H](CO)C(=O)N[C@@H]([C@@H](C)O)C(=O)N1)C(C)C)C(=O)N[C@@H](CO)C(=O)N[C@@H](CCC(N)=O)C(=O)N[C@@H](CCC(=O)O)C(=O)N[C@@H](CC(C)C)C(=O)N[C@@H](Cc1c[nH]cn1)C(=O)N[C@@H](CCCCN)C(=O)N[C@@H](CC(C)C)C(=O)N[C@@H](CCC(N)=O)C(=O)N[C@H](C(=O)N[C@@H](Cc1ccc(O)cc1)C(=O)N1CCC[C@H]1C(=O)N[C@@H](CCCNC(=N)N)C(=O)N[C@H](C(=O)N[C@@H](CC(N)=O)C(=O)N[C@H](C(=O)NCC(=O)N[C@@H](CO)C(=O)NCC(=O)N[C@H](C(=O)N1CCC[C@H]1C(N)=O)[C@@H](C)O)[C@@H](C)O)[C@@H](C)O)[C@@H](C)O [Calcitonin]
- Max Response (GPCR panel): 102.54 and 108.07 and 103.06

Molecule: O=C(O)CCC/C=C\C[C@@H]1[C@@H](/C=C/[C@@H](O)COc2ccc(I)cc2)[C@H]2CC[C@@H]1O2 [I-BOP]
- EC50 (TBXA2R): 21.3 nM

Molecule: CC(C)C[C@H](NC(=O)CNC(=O)[C@H](Cc1ccccc1)NC(=O)[C@H](CO)NC(=O)[C@H](CC(N)=O)NC(=O)[C@H](Cc1c[nH]c2ccccc12)NC(=O)[C@H](CC(N)=O)NC(=O)[C@@H](N)Cc1ccc(O)cc1)C(=O)N[C@@H](CCCNC(=N)N)C(=O)N[C@@H](Cc1ccccc1)C(N)=O [Kisspeptin-10]
- EC50 (KISS1R): 17.6 nM

Molecule: CCCCCCCCCCCCCCCC(=O)N[C@@H](CCC(=O)NCCCC[C@H](NC(=O)[C@H](C)NC(=O)[C@H](C)NC(=O)[C@H](CCC(N)=O)NC(=O)CNC(=O)[C@H](CCC(=O)O)NC(=O)[C@H](CC(C)C)NC(=O)[C@H](Cc1ccc(O)cc1)NC(=O)[C@H](CO)NC(=O)[C@H](CO)NC(=O)[C@@H](NC(=O)[C@H](CC(=O)O)NC(=O)[C@H](CO)NC(=O)[C@@H](NC(=O)[C@H](Cc1ccccc1)NC(=O)[C@@H](NC(=O)CNC(=O)[C@H](CCC(=O)O)NC(=O)[C@H](C)NC(=O)[C@@H](N)Cc1cnc[nH]1)[C@@H](C)O)[C@@H](C)O)C(C)C)C(=O)N[C@@H](CCC(=O)O)C(=O)N[C@@H](Cc1ccccc1)C(=O)N[C@H](C(=O)N[C@@H](C)C(=O)N[C@@H](Cc1c[nH]c2ccccc12)C(=O)N[C@@H](CC(C)C)C(=O)N[C@H](C(=O)N[C@@H](CCCNC(=N)N)C(=O)NCC(=O)N[C@@H](CCCNC(=N)N)C(=O)NCC(=O)O)C(C)C)[C@@H](C)CC)C(=O)O [Liraglutide, liraglutide]
- kaolin intake [2]: Kaolin intake was increased

Molecule: CC[C@H](C)[C@H](NC(=O)[C@@H]1CCCN1C(=O)[C@@H](NC(=O)[C@@H](N)Cc1ccccc1)C(C)C)C(=O)N[C@@H](Cc1ccccc1)C(=O)N[C@H](C(=O)N[C@@H](Cc1ccc(O)cc1)C(=O)NCC(=O)N[C@@H](CCC(=O)O)C(=O)N[C@@H](CC(C)C)C(=O)N[C@@H](CCC(N)=O)C(=O)N[C@@H](CCCNC(=N)N)C(=O)N[C@@H](CCSC)C(=O)N[C@@H](CCC(N)=O)C(=O)N[C@@H](CCC(=O)O)C(=O)N[C@@H](CCCCN)C(=O)N[C@@H](CCC(=O)O)C(=O)N[C@@H](CCCNC(=N)N)C(=O)N[C@@H](CC(N)=O)C(=O)N[C@@H](CCCCN)C(=O)NCC(=O)N[C@@H](CCC(N)=O)C(=O)O)[C@@H](C)O [Motilin]
- EC50 (MLNR): 1.59 nM

Molecule: CCCCCCCC/C=C\CCCCCCCC(=O)NCCO [Oleoyl Ethanolamide]
- EC50 (GPR119): 1840 nM

Molecule: CCCCCCCCCCCCCCCCOC[C@H](COP(=O)([O-])OCC[N+](C)(C)C)OC(C)=O [PAF]
- EC50 (PTAFR): 3.82 nM

Molecule: CC[C@H](C)[C@H](NC(=O)CNC(=O)[C@H](CCCNC(=N)N)NC(=O)[C@H](CO)NC(=O)[C@H](C)NC(=O)[C@H](Cc1ccc(O)cc1)NC(=O)[C@H](Cc1c[nH]c2ccccc12)NC(=O)[C@H](C)NC(=O)[C@@H]1CCCN1C(=O)[C@H](CC(N)=O)NC(=O)[C@@H](NC(=O)[C@H](CC(=O)O)NC(=O)[C@@H]1CCCN1C(=O)[C@@H](NC(=O)[C@H](CCCNC(=N)N)NC(=O)[C@@H](NC(=O)[C@H](CCC(=O)O)NC(=O)[C@H](CCSC)NC(=O)[C@H](CO)NC(=O)[C@H](Cc1c[nH]cn1)NC(=O)[C@H](CCCNC(=N)N)NC(=O)[C@H](Cc1c[nH]cn1)NC(=O)[C@@H](NC(=O)[C@H](CCCNC(=N)N)NC(=O)[C@@H](N)CO)[C@@H](C)O)[C@@H](C)CC)[C@@H](C)O)[C@@H](C)CC)C(=O)N[C@@H](CCCNC(=N)N)C(=O)N1CCC[C@H]1C(=O)N[C@H](C(=O)NCC(=O)N[C@@H](CCCNC(=N)N)C(=O)N[C@@H](Cc1ccccc1)C(N)=O)C(C)C [PrRP-31]
- EC80 (GPCR panel): 10.72 nM
- Max Response (GPCR panel): 101.19

Molecule: O=c1ccn([C@@H]2O[C@H](COP(=O)(O)OP(=O)(O)O)[C@@H](O)[C@H]2O)c(=O)[nH]1 [UDP]
- EC50 (P2RY6): 13.3 nM

Molecule: O=c1ccn([C@@H]2O[C@H](COP(=O)(O)OP(=O)(O)OP(=O)(O)O)[C@@H](O)[C@H]2O)c(=O)[nH]1 [UTP]
- EC50 (P2RY2): 431 nM
- EC50 (P2RY4): 126 nM

Molecule: DVNTDRPGLLDLK-NH2 [TDN]
- kaolin intake ([3]; 4th ventricle injection, HFD-maintained rats): mildly increase kaolin intake in HFD-maintained rats
- kaolin intake ([3]; 4th ventricle injection, chow-maintained rats): did not alter kaolin intake in chow rats
- kaolin intake ([3]; lateral ventricle injection, chow and HFD rats): did not affect kaolin intake

Molecule: QATVGDVNTDRPGLLDLK-NH2 [ODN]
- emesis ([4]; intraperitoneal 500 μg/kg or 5000 μg/kg): without including emesis
- emetic episodes ([4]; high ODN dose): no emetic episodes were observed
- emetic episodes ([4]; low ODN dose): one of 9 shrews had an emetic episode

Molecule: SFRNGVGTGMKKTSFQRAKS [Neuropeptide S]
- EC50 (NPSR1B): 23.6 nM

Molecule: exendin-4 [Ex-4]
- DBI protein expression in NTS and AP (DBI protein expression): not different between treatments in HFD-maintained rats
- 24 h body weight change ([5]; HFD-maintained rats): decreased 24 h body weight change relative to controls
- 24 h body weight change ([5]; chow-maintained rats): decreased 24 h body weight change relative to controls
